The supplement of paper PMC10307832

How the values were obtained:
Assay in all cases: relative viability (nuclei count vs DMSO), 5 days (fraction); higher = more cells survive
AZ3146 + Lapatinib = compound: CN1CCC(CC1)OC2=CC(=C(C=C2)NC3=NC=C4C(=N3)N(C(=O)N4C)C5CCCC5)OC [AZ3146] + CS(=O)(=O)CCNCc1ccc(-c2ccc3ncnc(Nc4ccc(OCc5cccc(F)c5)c(Cl)c4)c3c2)o1 [Lapatinib] (partner 2 µM)
Summary of the method: (§1)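 Five library-drug doses in √10 steps were combined with a fixed anchor-drug dose, or a single drug was given alone, by pin tool to lung cancer cell lines in 1536-well plates the day after seeding. Nuclei were stained and counted after 5 days. Relative viability is the nuclei count in treated wells over that in vehicle wells, taken as the median of duplicate plates.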

GSK-J4 + Phenformin = compound: CCOC(=O)CCNc1cc(N2CCc3ccccc3CC2)nc(-c2ccccn2)n1 [GSK-J4] + N=C(N)NC(=N)NCCc1ccccc1 [Phenformin] (partner 250 µM)
Summary of the method: as §1

GSK-J4 + Vorinostat = compound: CCOC(=O)CCNc1cc(N2CCc3ccccc3CC2)nc(-c2ccccn2)n1 [GSK-J4] + O=C(CCCCCCC(=O)Nc1ccccc1)NO [Vorinostat] (partner 1 µM)
Summary of the method: as §1

AZ3146 + Vorinostat = compound: CN1CCC(CC1)OC2=CC(=C(C=C2)NC3=NC=C4C(=N3)N(C(=O)N4C)C5CCCC5)OC [AZ3146] + O=C(CCCCCCC(=O)Nc1ccccc1)NO [Vorinostat] (partner 1 µM)
Summary of the method: as §1

Cell Line	relative viability (AZ3146 + Lapatinib; first compound 0.8 µM)	relative viability (AZ3146 + Lapatinib; first compound 2.53 µM)	relative viability (AZ3146 + Lapatinib; first compound 8 µM)	relative viability (GSK-J4 + Phenformin; first compound 0.5 µM)	relative viability (GSK-J4 + Phenformin; first compound 1.581 µM)	relative viability (GSK-J4 + Phenformin; first compound 5 µM)	relative viability (GSK-J4 + Phenformin; first compound 15.81 µM)	relative viability (GSK-J4 + Phenformin; first compound 50 µM)	relative viability (GSK-J4 + Vorinostat; first compound 0.5 µM)	relative viability (GSK-J4 + Vorinostat; first compound 1.581 µM)	relative viability (GSK-J4 + Vorinostat; first compound 5 µM)	relative viability (GSK-J4 + Vorinostat; first compound 15.81 µM)	relative viability (GSK-J4 + Vorinostat; first compound 50 µM)	relative viability (AZ3146 + Vorinostat; first compound 0.08 µM)	relative viability (AZ3146 + Vorinostat; first compound 0.253 µM)	relative viability (AZ3146 + Vorinostat; first compound 0.8 µM)	relative viability (AZ3146 + Vorinostat; first compound 2.53 µM)	relative viability (AZ3146 + Vorinostat; first compound 8 µM)	relative viability (AZ3146 + Lapatinib; first compound 0.08 µM)	relative viability (AZ3146 + Lapatinib; first compound 0.253 µM)
LCLC-97TM1	1.2	0.861	0.289	0.369	0.327	0.397	0.339	0.264	0.684	0.442	0.681	0.507	0.578	0.356	0.761	0.631	0.635	0.653	–	–
NCI-H1993	0.724	0.853	0.779	0.476	0.545	0.555	0.548	0.456	1.15	0.708	0.804	0.601	0.409	0.724	1.03	1.06	1.05	0.559	0.896	0.788
NCI-H1793	0.492	0.805	0.497	0.446	0.29	0.281	0.294	0.228	0.942	0.586	0.663	0.358	0.284	0.616	0.682	0.613	0.942	0.573	0.649	0.853
NCI-H2087	1.08	0.906	1.14	0.466	–	0.541	0.452	0.456	0.638	0.68	0.544	0.842	0.811	0.649	0.505	0.838	0.668	0.367	0.899	1.08
NCI-H1792	0.868	0.936	0.954	0.267	0.258	0.185	0.529	0.318	–	–	–	–	–	–	–	–	–	–	0.854	1.09
